Test results published in the supplement of paper PMC10307832.

These cell lines were tested with CC1(C)CCC(CN2CCN(c3ccc(C(=O)NS(=O)(=O)c4ccc(NCC5CCOCC5)c([N+](=O)[O-])c4)c(Oc4cnc5[nH]ccc5c4)c3)CC2)=C(c2ccc(Cl)cc2)C1 [Venetoclax] + COc1cccc2cc(-c3nc([C@H]4CC[C@H](C(=O)O)CC4)n4ncnc(N)c34)[nH]c12 [OSI-027] (partner 0.5 µM) (assay: relative viability (nuclei count vs DMSO), 5 days (fraction); higher = more cells survive). Settings: first compound 1 µM.
Method in brief: (§1)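 Relative viability equals treated-well nuclei counts divided by vehicle-well nuclei counts. Counts came from 4× images of lung cancer cell lines grown in 1536-well plates for 5 days after pin-tool dosing on the day after seeding. Dosing used one drug alone or a fixed anchor-drug dose plus five library-drug doses (not always all listed) in √10 steps, and values are medians of duplicate plates.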
Cell Line NCI-H2405 has a relative viability of 0.619.
Cell Line NCI-H1437 has a relative viability of 0.802.
Work on NCI-H661 yielded a relative viability of 0.617.
Cell Line CAL-12T has a relative viability of 0.413.
H3255 was tested, and the relative viability was 0.668.
NCI-H2347 was tested, and the relative viability was 0.372.
In the case of NCI-H1975, the relative viability is reported as 0.68.
NCI-H441 gave a relative viability of 0.553.
For NCI-H1650, the relative viability was 0.529.
NCI-H1915 showed a relative viability of 0.586.
NCI-H2087 gave a relative viability of 0.435.
In the case of HCC-366, the relative viability is reported as 0.573.
NCI-H1793 showed a relative viability of 0.186.
With RERF-LC-KJ the relative viability was 0.521.
Work on EKVX yielded a relative viability of 0.63.
With LCLC-103H the relative viability was 0.404.
With NCI-H1651 the relative viability was 0.658.

These cell lines were tested with CC1(C)CCC(CN2CCN(c3ccc(C(=O)NS(=O)(=O)c4ccc(NCC5CCOCC5)c([N+](=O)[O-])c4)c(Oc4cnc5[nH]ccc5c4)c3)CC2)=C(c2ccc(Cl)cc2)C1 [Venetoclax] + CC(=O)c1c(C)c2cnc(Nc3ccc(N4CCNCC4)cn3)nc2n(C2CCCC2)c1=O [Palbociclib] (partner 0.5 µM) in the same assay as above. Settings: first compound 0.01 µM.
Method in brief: as §1
BEN was tested, and the relative viability was 0.519.
Work on HCC-15 yielded a relative viability of 0.755.
HCC-827 was tested, and the relative viability was 0.526.
NCI-H460 was tested, and the relative viability was 0.158.
LU99A was tested, and the relative viability was 0.377.
For NCI-H2085, the relative viability was 0.441.
In the case of A-427, the relative viability is reported as 0.469.
NCI-H520 showed a relative viability of 0.236.
Work on NCI-H838 yielded a relative viability of 0.236.
NCI-H1792 was tested, and the relative viability was 0.657.
In the case of NCI-H3122, the relative viability is reported as 0.249.
Work on NCI-H1395 yielded a relative viability of 0.62.
For 201T, the relative viability was 0.364.
Work on NCI-H1993 yielded a relative viability of 0.643.
For HOP-62, the relative viability was 0.43.
In the case of NCI-H1355, the relative viability is reported as 0.428.
NCI-H2405 showed a relative viability of 0.52.
In the case of NCI-H1437, the relative viability is reported as 0.314.
Cell Line NCI-H661 has a relative viability of 0.401.
With CAL-12T the relative viability was 0.401.
H3255 gave a relative viability of 0.34.
In the case of NCI-H2347, the relative viability is reported as 0.41.
In the case of NCI-H1975, the relative viability is reported as 0.667.
NCI-H441 showed a relative viability of 0.218.
Cell Line NCI-H1650 has a relative viability of 0.315.
In the case of NCI-H1915, the relative viability is reported as 0.477.
Work on NCI-H2087 yielded a relative viability of 0.257.
Work on HCC-366 yielded a relative viability of 0.391.
NCI-H1793 showed a relative viability of 0.296.
In the case of RERF-LC-KJ, the relative viability is reported as 1.05.
EKVX was tested, and the relative viability was 0.438.
With LCLC-103H the relative viability was 0.518.
In the case of NCI-H1651, the relative viability is reported as 0.529.

Same assay, conditions: first compound 0.03162 µM
BEN gave a relative viability of 0.469.
Work on HCC-15 yielded a relative viability of 0.672.
With HCC-827 the relative viability was 0.627.
Work on NCI-H460 yielded a relative viability of 0.294.
Cell Line LU99A has a relative viability of 0.465.
NCI-H2085 showed a relative viability of 0.471.
With A-427 the relative viability was 0.595.
Work on NCI-H520 yielded a relative viability of 0.217.
In the case of NCI-H838, the relative viability is reported as 0.212.
Cell Line NCI-H1792 has a relative viability of 0.678.
For NCI-H3122, the relative viability was 0.226.
Work on NCI-H1395 yielded a relative viability of 0.609.
Cell Line 201T has a relative viability of 0.353.
Work on NCI-H1993 yielded a relative viability of 0.652.
For HOP-62, the relative viability was 0.462.
For NCI-H1355, the relative viability was 0.387.
For NCI-H2405, the relative viability was 0.533.
NCI-H1437 showed a relative viability of 0.303.
NCI-H661 showed a relative viability of 0.411.
CAL-12T gave a relative viability of 0.565.
H3255 gave a relative viability of 0.316.
With NCI-H2347 the relative viability was 0.388.
NCI-H1975 was tested, and the relative viability was 0.672.
For NCI-H441, the relative viability was 0.27.
In the case of NCI-H1650, the relative viability is reported as 0.364.
NCI-H1915 gave a relative viability of 0.558.
In the case of NCI-H2087, the relative viability is reported as 0.257.
HCC-366 showed a relative viability of 0.359.
NCI-H1793 showed a relative viability of 0.304.
For RERF-LC-KJ, the relative viability was 1.08.
In the case of EKVX, the relative viability is reported as 0.397.
LCLC-103H gave a relative viability of 0.479.
With NCI-H1651 the relative viability was 0.537.

Same assay, conditions: first compound 0.1 µM
For BEN, the relative viability was 0.49.
Cell Line HCC-15 has a relative viability of 0.419.
Work on HCC-827 yielded a relative viability of 0.463.
NCI-H460 gave a relative viability of 0.121.
For LU99A, the relative viability was 0.384.
NCI-H2085 was tested, and the relative viability was 0.486.
With A-427 the relative viability was 0.498.
Work on NCI-H838 yielded a relative viability of 0.217.
Work on NCI-H1792 yielded a relative viability of 0.65.
With NCI-H3122 the relative viability was 0.185.
In the case of NCI-H1395, the relative viability is reported as 0.576.
For 201T, the relative viability was 0.321.
NCI-H1993 was tested, and the relative viability was 0.717.
With HOP-62 the relative viability was 0.373.
With NCI-H1355 the relative viability was 0.404.
For NCI-H2405, the relative viability was 0.531.
NCI-H1437 showed a relative viability of 0.282.
In the case of NCI-H661, the relative viability is reported as 0.396.
In the case of CAL-12T, the relative viability is reported as 0.384.
With H3255 the relative viability was 0.315.
For NCI-H2347, the relative viability was 0.322.
Cell Line NCI-H1975 has a relative viability of 0.506.
NCI-H441 showed a relative viability of 0.241.
Work on NCI-H1650 yielded a relative viability of 0.323.
NCI-H1915 showed a relative viability of 0.541.
NCI-H2087 gave a relative viability of 0.235.
HCC-366 showed a relative viability of 0.314.
NCI-H1793 showed a relative viability of 0.306.
RERF-LC-KJ gave a relative viability of 0.988.
EKVX was tested, and the relative viability was 0.378.
LCLC-103H was tested, and the relative viability was 0.491.
With NCI-H1651 the relative viability was 0.536.

Same assay, conditions: first compound 0.3162 µM
For BEN, the relative viability was 0.489.
HCC-15 was tested, and the relative viability was 0.655.
Cell Line HCC-827 has a relative viability of 0.442.
For NCI-H460, the relative viability was 0.216.
With LU99A the relative viability was 0.39.
NCI-H2085 was tested, and the relative viability was 0.454.
A-427 gave a relative viability of 0.507.
In the case of NCI-H520, the relative viability is reported as 0.204.
With NCI-H838 the relative viability was 0.208.
Cell Line NCI-H1792 has a relative viability of 0.699.
NCI-H3122 was tested, and the relative viability was 0.18.
NCI-H1395 gave a relative viability of 0.603.
With 201T the relative viability was 0.331.
For NCI-H1993, the relative viability was 0.616.
In the case of HOP-62, the relative viability is reported as 0.427.
NCI-H1355 was tested, and the relative viability was 0.424.
NCI-H2405 showed a relative viability of 0.529.
In the case of NCI-H1437, the relative viability is reported as 0.285.
With NCI-H661 the relative viability was 0.392.
CAL-12T gave a relative viability of 0.453.
H3255 gave a relative viability of 0.33.
NCI-H2347 showed a relative viability of 0.483.
In the case of NCI-H1975, the relative viability is reported as 0.515.
NCI-H441 was tested, and the relative viability was 0.2.
Work on NCI-H1650 yielded a relative viability of 0.419.
In the case of NCI-H1915, the relative viability is reported as 0.524.
With NCI-H2087 the relative viability was 0.249.
In the case of HCC-366, the relative viability is reported as 0.37.
NCI-H1793 was tested, and the relative viability was 0.327.
Work on RERF-LC-KJ yielded a relative viability of 1.03.
Cell Line EKVX has a relative viability of 0.331.
LCLC-103H gave a relative viability of 0.437.
With NCI-H1651 the relative viability was 0.545.

Same assay, conditions: first compound 1 µM
In the case of BEN, the relative viability is reported as 0.498.
HCC-15 gave a relative viability of 0.508.
With HCC-827 the relative viability was 0.534.
NCI-H460 gave a relative viability of 0.144.
With LU99A the relative viability was 0.427.
NCI-H2085 was tested, and the relative viability was 0.47.
A-427 was tested, and the relative viability was 0.516.
Cell Line NCI-H520 has a relative viability of 0.201.
